From PubChem BioAssay (NCI) come the findings set out here.

Some test systems named below: 786-0 renal; CCRF-CEM leukemia; DU-145 prostate; HCT-116 colon; HCT-15 colon; PC-3 prostate; RPMI-8226 leukemia; SF-539 CNS; SNB-19 CNS; SNB-75 CNS.
Holding throughout (test): NCI tumour cell line growth inhibition, 48 h

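1) Cells in 96-well plates. 2) Compound, 48 h, 5 concentrations. 3) Linear interpolation between surrounding doses. 4) Unreached endpoint = highest concentration. GI50 = concentration required for 50% inhibition of growth. TGI: concentration producing complete growth inhibition.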

Turning to `Cn1c2c(c3c(Cl)nncc31)Cc1ccccc1-2`, the GI50 with 786-0 renal is 23.6 µM; in the assay with CCRF-CEM leukemia, 15.3 µM; in the assay on DU-145 prostate, 6.4 µM; in the assay on HCT-116 colon, 17.9 µM; in the assay on HCT-15 colon it was 22.2 µM; in the assay with PC-3 prostate, 31.8 µM. Besides, the GI50 in the assay on RPMI-8226 leukemia is 18.1 µM; with SF-539 CNS, 20 µM; with SNB-19 CNS it was 12.9 µM; with SNB-75 CNS it was 76.8 µM. The TGI with 786-0 renal is above 100 µM; in the assay with CCRF-CEM leukemia, above 100 µM; in the assay with DU-145 prostate it was 41 µM; in the assay on HCT-116 colon, above 100 µM; with HCT-15 colon, above 100 µM; in the assay with PC-3 prostate, above 100 µM. The TGI in the assay with RPMI-8226 leukemia is above 100 µM; in the assay with SF-539 CNS, 76.1 µM; with SNB-19 CNS it was 51.1 µM; in the assay with SNB-75 CNS, above 100 µM.

In the case of `Nc1ccccc1C(=O)CCC1C(=O)NC(=S)NC1=O`, the TGI in the assay with 786-0 renal, in the assay on CCRF-CEM leukemia, in the assay on DU-145 prostate, in the assay on HCT-116 colon, in the assay with HCT-15 colon and in the assay with PC-3 prostate was above 100 µM in each case. Besides, the TGI in the assay on RPMI-8226 leukemia is above 100 µM; in the assay on SF-539 CNS it was above 100 µM; with SNB-19 CNS it was above 100 µM; in the assay with SNB-75 CNS, above 89.6 µM.

Consider `c1ccc(CNCCN(CCNCc2ccccn2)Cc2ccc3ccccc3c2)nc1`, for which the GI50 with 786-0 renal is 2.34 µM; in the assay with CCRF-CEM leukemia, 3.08 µM; with DU-145 prostate, 2.79 µM; in the assay with HCT-116 colon, 2.37 µM; in the assay on HCT-15 colon it was 1.16 µM; in the assay with PC-3 prostate it was 1.92 µM. Also, the GI50 with RPMI-8226 leukemia was 2.67 µM; in the assay with SF-539 CNS it was 1.64 µM; in the assay with SNB-19 CNS, 2.68 µM; in the assay on SNB-75 CNS, 2.03 µM. Moreover, the TGI in the assay on 786-0 renal is 8.15 µM; in the assay with CCRF-CEM leukemia, 10.3 µM; with DU-145 prostate it was 10.3 µM; in the assay on HCT-116 colon, 8.36 µM; in the assay with HCT-15 colon, 5.01 µM; in the assay on PC-3 prostate, 6.13 µM. Besides, the TGI stood at 6.65 µM with RPMI-8226 leukemia, 3.1 µM with SF-539 CNS, 8.95 µM with SNB-19 CNS and 9.98 µM with SNB-75 CNS.

`CC(=O)N1N=C(c2ccc(Nc3nc(Nc4ccc(F)cc4)nc(Nc4ccc(F)cc4)n3)cc2)CC1c1ccc(N(C)C)cc1` (centres undefined): the GI50 is 5.09 µM in the assay on 786-0 renal; 3.36 µM in the assay with CCRF-CEM leukemia; 11.9 µM in the assay on DU-145 prostate; 3.6 µM in the assay with HCT-116 colon; 2.41 µM in the assay with HCT-15 colon; 1.6 µM in the assay with PC-3 prostate. The GI50 with RPMI-8226 leukemia is 1.77 µM; with SF-539 CNS it was 12.8 µM; in the assay on SNB-19 CNS, 16.1 µM; in the assay with SNB-75 CNS, 1.51 µM. Further, the TGI came out at 23.3 µM in the assay with 786-0 renal; 49.9 µM in the assay with CCRF-CEM leukemia; 32 µM with DU-145 prostate; 14.7 µM in the assay with HCT-116 colon; 7.43 µM in the assay with HCT-15 colon; 6.97 µM in the assay with PC-3 prostate. Also, the TGI in the assay with RPMI-8226 leukemia is 7.57 µM; in the assay on SF-539 CNS, 41.2 µM; with SNB-19 CNS it was above 100 µM; in the assay with SNB-75 CNS, 9.89 µM.

As to `C#CCN(c1ccc(C(=O)N[C@@H](CCC(=O)N[C@H](CCC(=O)O)C(=O)O)C(=O)O)cc1)C1CCc2cc3nc(CO)[nH]c(=O)c3cc21` (some centres undefined), the GI50 in the assay on 786-0 renal is 4.96 µM; with CCRF-CEM leukemia it was above 36.3 µM; with DU-145 prostate it was 16.5 µM; in the assay with HCT-116 colon it was 7.53 µM; in the assay with HCT-15 colon, above 29.9 µM; with PC-3 prostate, above 100 µM. In addition, the GI50 in the assay on RPMI-8226 leukemia is 88 µM; with SF-539 CNS, 4.38 µM; in the assay with SNB-19 CNS, above 73.5 µM; in the assay with SNB-75 CNS, above 100 µM. Further, the TGI with 786-0 renal, with CCRF-CEM leukemia, in the assay with DU-145 prostate, in the assay with HCT-116 colon, with HCT-15 colon and in the assay with PC-3 prostate was above 100 µM throughout. Besides, the TGI with RPMI-8226 leukemia, in the assay with SF-539 CNS, in the assay with SNB-19 CNS and in the assay with SNB-75 CNS was above 100 µM each time.

For `N#Cc1cnc(Nc2cc(NC[C@H]3CNCCO3)c(C(F)(F)F)cn2)cn1`, the GI50 with 786-0 renal was 0.668 µM; with CCRF-CEM leukemia it was 0.8 µM; in the assay with DU-145 prostate, 8.07 µM; in the assay with HCT-116 colon, 23.3 µM; in the assay with HCT-15 colon, 11 µM; in the assay with PC-3 prostate it was 21.1 µM. Besides, the GI50 with RPMI-8226 leukemia is 15.7 µM; in the assay on SF-539 CNS it was 0.669 µM; in the assay with SNB-19 CNS, 9.67 µM; with SNB-75 CNS, 11.5 µM. The TGI with 786-0 renal is 29 µM; in the assay on CCRF-CEM leukemia, above 100 µM; in the assay on DU-145 prostate it was 40.2 µM; in the assay on HCT-116 colon, above 100 µM; in the assay on HCT-15 colon, above 100 µM; in the assay on PC-3 prostate it was 87.5 µM. Besides, the TGI was 56.3 µM with RPMI-8226 leukemia, 17.3 µM in the assay with SF-539 CNS, above 100 µM in the assay with SNB-19 CNS and 28.1 µM in the assay on SNB-75 CNS.

Regarding `CCN(Cc1cccc(Cl)c1)c1ccc(CO)c(Cl)c1`, the GI50 in the assay on 786-0 renal was 5.96 µM; in the assay on CCRF-CEM leukemia it was 11.9 µM; in the assay with DU-145 prostate, 11.6 µM; with HCT-116 colon, 0.105 µM; in the assay with HCT-15 colon, 9.93 µM; in the assay with PC-3 prostate, 9.8 µM. Further, the GI50 is 4.35 µM in the assay with RPMI-8226 leukemia, 15.9 µM in the assay on SF-539 CNS, 13.8 µM in the assay with SNB-19 CNS and 12 µM in the assay on SNB-75 CNS. Besides, the TGI came to 20.9 µM in the assay on 786-0 renal; 35.4 µM with CCRF-CEM leukemia; 24.8 µM in the assay with DU-145 prostate; 10.3 µM in the assay on HCT-116 colon; 25.9 µM in the assay on HCT-15 colon; 23.2 µM in the assay on PC-3 prostate. The TGI in the assay on RPMI-8226 leukemia is 28.1 µM; in the assay with SF-539 CNS it was 30.8 µM; in the assay on SNB-19 CNS, 28.6 µM; with SNB-75 CNS, 30.2 µM.

With `Nc1nc(/C=C\c2ccccc2)nc(N2CCN(c3ccccc3)CC2)n1`, the GI50 in the assay with 786-0 renal is 16.2 µM; in the assay with CCRF-CEM leukemia, 37.3 µM; with DU-145 prostate it was 39.5 µM; with HCT-116 colon, 13.5 µM; in the assay on HCT-15 colon, 16.3 µM; in the assay with PC-3 prostate it was 27.9 µM. Moreover, the GI50 is 25.9 µM in the assay on RPMI-8226 leukemia, 41.1 µM with SF-539 CNS, 20.4 µM in the assay with SNB-19 CNS and 22.2 µM in the assay on SNB-75 CNS. For the same molecule, the TGI with 786-0 renal was 34.8 µM; in the assay with CCRF-CEM leukemia it was above 100 µM; in the assay with DU-145 prostate it was above 100 µM; in the assay with HCT-116 colon, 31.7 µM; in the assay with HCT-15 colon, 78 µM; in the assay on PC-3 prostate it was above 100 µM. The TGI in the assay with RPMI-8226 leukemia was above 100 µM; in the assay with SF-539 CNS it was above 100 µM; in the assay with SNB-19 CNS, 60 µM; with SNB-75 CNS, 69.4 µM.

For `O=C(c1ccc(Cl)cc1)C(O)c1ccc(Cl)cc1` (centres undefined), the TGI in the assay with 786-0 renal, with CCRF-CEM leukemia, with DU-145 prostate, in the assay on HCT-116 colon, in the assay with HCT-15 colon and in the assay on PC-3 prostate was above 100 µM throughout. The TGI in the assay with RPMI-8226 leukemia, in the assay with SF-539 CNS, in the assay with SNB-19 CNS and with SNB-75 CNS was above 100 µM each time.

Take `CC(=O)[C@H]1CCC/C=C/[C@@H]2C[C@H](O)C[C@H]2[C@H](O)/C=C/C(=O)O1`: the GI50 in the assay with 786-0 renal is 0.193 µM; in the assay on CCRF-CEM leukemia, 0.395 µM; in the assay on DU-145 prostate, 2.99 µM; in the assay on HCT-116 colon, 0.337 µM; with HCT-15 colon, 1.05 µM; with PC-3 prostate, 0.678 µM. For the same molecule, the GI50 is 0.36 µM in the assay with RPMI-8226 leukemia, 1.01 µM in the assay with SF-539 CNS, 1.64 µM with SNB-19 CNS and 0.237 µM in the assay on SNB-75 CNS. Further, the TGI in the assay on 786-0 renal was 0.392 µM; in the assay on CCRF-CEM leukemia, above 62.7 µM; in the assay with DU-145 prostate, above 100 µM; in the assay on HCT-116 colon, 1.18 µM; in the assay on HCT-15 colon, above 44.7 µM; in the assay on PC-3 prostate, above 100 µM. For the same molecule, the TGI in the assay on SF-539 CNS, with SNB-19 CNS and with SNB-75 CNS was above 100 µM each time.

Consider `Cc1cc(Nc2cc(N3CCN(C)CC3)nc(/C=C/c3ccccc3)n2)n[nH]1`, for which the GI50 in the assay with 786-0 renal was 0.789 µM; in the assay on CCRF-CEM leukemia it was 0.412 µM; in the assay on DU-145 prostate, 1.04 µM; in the assay on HCT-116 colon it was 0.201 µM; in the assay on HCT-15 colon, 0.326 µM; with PC-3 prostate, 0.794 µM. Besides, the GI50 was 1.69 µM with RPMI-8226 leukemia, 0.718 µM with SF-539 CNS, 1.49 µM in the assay on SNB-19 CNS and 0.391 µM with SNB-75 CNS. The TGI in the assay on 786-0 renal was above 6.25 µM; in the assay on CCRF-CEM leukemia it was above 10 µM; in the assay with DU-145 prostate, above 10 µM; with HCT-116 colon, above 10 µM; with HCT-15 colon, above 10 µM; in the assay on PC-3 prostate, above 6.61 µM. Further, the TGI is above 3.14 µM in the assay on RPMI-8226 leukemia, 2.05 µM with SF-539 CNS, above 10 µM in the assay with SNB-19 CNS and 2.12 µM in the assay with SNB-75 CNS.

On to `COc1cc(C2c3cc4c(cc3C(OC(=O)C[n+]3ccccc3)C3COC(=O)C23)OCO4)cc(OC)c1OC` (centres undefined), for which the GI50 was below 0.0183 µM in the assay on 786-0 renal; below 0.0205 µM in the assay with CCRF-CEM leukemia; below 0.0184 µM in the assay with DU-145 prostate; below 0.0181 µM in the assay with HCT-116 colon; below 0.0171 µM in the assay on HCT-15 colon; below 0.0187 µM in the assay with PC-3 prostate. The GI50 in the assay on RPMI-8226 leukemia is below 0.0203 µM; in the assay with SF-539 CNS it was below 0.0154 µM; with SNB-19 CNS, below 0.0265 µM; in the assay with SNB-75 CNS it was 1.33 µM. Besides, the TGI with 786-0 renal, with CCRF-CEM leukemia, with DU-145 prostate, in the assay with HCT-116 colon, in the assay with HCT-15 colon and in the assay on PC-3 prostate was above 100 µM each time. The TGI is above 100 µM in the assay on RPMI-8226 leukemia, below 0.0278 µM with SF-539 CNS, above 100 µM with SNB-19 CNS and above 100 µM in the assay on SNB-75 CNS.
